Where no end group is shown, it is not given here.
Tests used:
[1] = test system: LS180 colon cancer tumours; test: LS180 colon cancer tumours in mice, combination with doxorubicin; format: in vivo; settings: mice treated with only doxorubicin (and control cohorts)
Text: Both in vitro and in vivo data support the efficacy of PhGα1 in limiting the effect of multi-drug resistance (MDR) in colorectal drug-resistant tumours when used in combination treatment with chemotherapy. Specifically, studies have shown that establishment of LS180 colon cancer tumours in mice (M1 stage) treated with PhGα1 in combination with an anthracycline chemotherapeutic, doxorubicin, was delayed approximately 100% (p<0.03) versus control cohorts and mice treated with only doxorubicin (28 days compared to 14 days). Results were also observed for tumour transition from the M1 to M2 stage.

PKC-β [2] = test: In vitro competition with anti-PKC-β antibody, Protocol A, IMR-32 cells; format: binding, human; settings: for Band Intensity / Inhibition (%) / Relative Intensity (%): PKC-β, IMR-32, Table 6
Experimental: (§1) Cell lysates from either IMR-32 (human neuroblastoma) cells or C6Cx43 cells (rat glioma transfected cells overexpressing connexin 43) were obtained using standard protocols and the proteins of the lysate were separated by SDS PAGE electrophoresis and electrotransferred onto a nitrocellulose membrane. The membrane was incubated for 30 minutes in blocking buffer (TBST) containing the test peptide at either 5× or 20× the concentrations of the primary antibody. A primary polyclonal antibody specific for PKC-α (Santa Cruz Biotechnology, Inc., CA) was then added (15 μg/ml) and the membrane incubated for a further 45 minutes. Finally, the primary antibody was detected with a secondary antibody conjugated to alkaline phosphatase using standard procedures. The intensity of the band corresponding to PKC-α was assessed by scanning and densitometry using the Gel-Pro software (Media Cybernetics) to obtain relative band intensities (average of 3 replicas). Control assays were conducted as described above except that blocking buffer without peptide was used.
Peptides PRE 1, PRE 2 and PRE 3 (see Table 3) were tested for their ability to interfere with the binding of a PKC-β-specific polyclonal antibody (Santa Cruz Biotechnology, Inc.) to PKC-β using the general protocol described in Example 1. […] It is worth noting in this regard that PKC-α and PKC-β belong to the same sub-group of PKCs (cPKCs).

PKC-α [3] = molecular target: T1, PKC-α (Homo sapiens, UniProt P17252); test: In vitro competition with anti-PKC-α antibody, Protocol B (peptide added to cell extract before electrophoresis), IMR-32 cells; format: binding; parameters: subcellular localisation of endogenous PKC-α in IMR-32 cells; endogenous in cells; host or cells: IMR-32
Experimental: Peptides PRE 3 and PRE 4 (see Table 3) were tested for their ability to interfere with the binding of isoform-specific polyclonal antibodies (Santa Cruz Biotechnology, Inc.) to PKC-α, PKC-βI or PKC-βII using the general protocol described in Example 3.

PKC-α [4] = molecular target: T1, PKC-α; test: In vitro competition with anti-PKC-α antibody on blotted cell lysate, Protocol A, IMR-32 cells; format: binding; parameters: subcellular localisation of endogenous PKC-α in IMR-32 cells; endogenous in cells; host or cells: IMR-32; settings: Protocol A; for Band Intensity / Inhibition (%) / Relative Intensity (%): IMR-32, Table 4
Experimental: The ability of the peptides to interfere with the binding of a PKC-α-specific monoclonal antibody to PKC-α was determined using the following protocol.
as §1, with “The membrane was incubated for 30 minutes in blocking buffer (TBST) containing the test peptide at either 5× or 20× the concentrations of the primary antibody.” left out
The results are expressed as relative band intensity and as a percentage of the intensity of the corresponding band in the control assay (“Relative intensity (%)”). “% inhibition” relates to the percentage of the PKC-α band that is inaccessible to the antibody.

PKC-β [5] = test: In vitro competition with anti-PKC-β antibody, Protocol B, IMR-32 cells; format: binding, human
Experimental: (§2) The ability of the peptides PRE 2 and PRE 3 (see Table 3) to interfere with the binding of a PKC-α-specific polyclonal antibody (Santa Cruz Biotechnology, Inc.) to PKC-α was determined using a modified version of the protocol outlined above in which the test peptide was added directly to the cell extract prior to electrophoresis at a concentration of either 5× or 15× the concentration of the protein applied to each well of the gel for the Western blots (20 μg).
Peptides PRE 2 and PRE 3 (see Table 3) were tested for their ability to interfere with the binding of a PKC-β-specific polyclonal antibody (Santa Cruz Biotechnology, Inc.) to PKC-β using the general protocol described in Example 3.

PKC-ε = test: In vitro competition with anti-PKC-ε antibody, Protocol B, IMR-32 cells; format: binding, human
Experimental: as §2
Peptides PRE 2, PRE 3 and PRE 4 (see Table 3) were tested for their ability to interfere with the binding of isoform-specific polyclonal antibodies (Santa Cruz Biotechnology, Inc.) to PKC-ε using the general protocol described in Example 3. Two bands, representing alternate splicing variants of PKC-ε, were identified on the Western blot using this anti-PKC-ε antibody.

In the case of `COc1cccc2c1C(=O)c1c(O)c3c(c(O)c1C2=O)C[C@@](O)(C(=O)CO)C[C@@H]3O[C@H]1C[C@H](N)[C@H](O)[C@H](C)O1` [doxorubicin], the “time to establishment of LS180 tumours (M1 stage)” value [1] was 14 days.

For KDAQNLIGISL-NH2 [PRE 2], the “effect on antibody binding to PKC-β” value (PKC-β [2]) was “some cross reactivity”, the “Band Intensity” value (PKC-β [2]; 75 μg) was 0.800 and the “Inhibition (%)” value (PKC-β [2]; 75 μg) was 31.0%. For the same compound, the “Relative Intensity (%)” value (PKC-β [2]; 75 μg) was 69.0%, the “Band Intensity” value (PKC-β [2]; 300 μg) was 0.403 and the “Inhibition (%)” value (PKC-β [2]; 300 μg) was 65.3%. The “Relative Intensity (%)” value (PKC-β [2]; 300 μg) was 34.7%, the “effect on antibody binding to PKC-α” value (PKC-α [3]) was “effectively interfered with PKC-α antibody binding to PKC-α” and the “Band Intensity” value (PKC-α [3]; 100 μg, PKC-α, IMR-32, Table 7) was 0.0103. For the same compound, the “Inhibition (%)” value (PKC-α [3]; 100 μg, PKC-α, IMR-32, Table 7) was 99.9%, the “Relative Intensity (%)” value (PKC-α [3]; 100 μg, PKC-α, IMR-32, Table 7) was 0.135% and the “Band Intensity” value (PKC-α [4]; 75 μg peptide) was 0.917. For the same compound, the “Inhibition (%)” value (PKC-α [4]; 75 μg peptide) was 56.1%, the “Relative Intensity (%)” value (PKC-α [4]; 75 μg peptide) was 43.9% and the “Band Intensity” value (PKC-α [4]; 300 μg peptide) was 0.192. The “Inhibition (%)” value (PKC-α [4]; 300 μg peptide) was 90.9%, the “Relative Intensity (%)” value (PKC-α [4]; 300 μg peptide) was 9.1% and the “effect on antibody binding to PKC-α” value (PKC-α [4]) was “mask the antigenic site of PKC-α”. For the same compound, the “effect on antibody binding to PKC-β” value (PKC-β [5]) was “some cross reactivity”, the “Band Intensity” value (PKC-β [5]; 100 μg, PKC-β, IMR-32, Table 8) was 0.0322 and the “Inhibition (%)” value (PKC-β [5]; 100 μg, PKC-β, IMR-32, Table 8) was 54.7%. For the same compound, the “Relative Intensity (%)” value (PKC-β [5]; 100 μg, PKC-β, IMR-32, Table 8) was 45.3% and the “effect on antibody binding to PKC-ε” value (PKC-ε) was “some cross-reactivity with PKC-ε”.

Reference: patent US20100041597A1, “PEPTIDES TARGETED TO PROTEIN KINASE C ISOFORMS AND USES THEREOF” (priority 2005, published 2010)
